# Test results reported in patent US5135943A, “1H-imidazole derivative compounds and pharmaceutical compositions containing the same” (priority 1984, dated 1992).
# Read-outs that look alike come from different tables or passages of the source.
# How the values were obtained:
# [1] = test system: Swiss mice; settings: mouse, in vivo
# Description: Such signs included convulsions and Straub tail(vertical righting of the tail).
# [2] = Safe dosage based on the toxicity findings; settings: in vivo
# Protocol: In a study of prolonged subacute toxicity of Miconazole in rats, among other effects, significant hepatomegalias in females with a dosage of under 30 mg/kg p.o. and in males with a dosage of under 60 mg/kg p.o. were observed.
# Based on these finds a safe dosage for Miconazole is about 10 mg/kg, while a safe dosage for Sertaconzole is about 150 mg/kg, i.e about 15 times higher.
# [3] = test system: Trichophyton mcntagrophytes; assay: Dermal infection in albino female guinea pigs by Trichophyton mentagrophytes; format: in vivo, guinea pig; settings: for % microbiological healing / Negative Cultures to Total Cultures: 2% cream
# Description: (§1) A number of compounds with antimycotic and/or fungicidal properties, which are useful in pharmaceutical compositions, are currently known. These include the commercially successful Miconazole having the formula II [drawing 2] Miconazole has a structure chemically similar to the 1H-imidazole derivative compounds of the invention. Miconazole is effective against a number of yeasts, dermatophytes and fungi. This effectiveness can be measured by culturing these microorganisms in vitro and applying a preparation containing the antimycotic compound, Miconazole. The results of this type of in vitro experiment is expressed in terms of the Minimum Inhibitory Concentration (MIC), i.e. the minimum concentration which inhibits the growth of the microorganism. For example, the MIC for Miconazole against a particular Candida albicans strain is found to be 10.7 micrograms/milliliter. The effectiveness of Miconazole as an antimycotic compound is measured in vivo by applying a suspension containing the drug to the skin of a number of animals and measuring the proportion of animals on which growth of the microorganism is inhibited as a function of time. Typically, after 25 days, about 1/4 of the animals were cured, when treated with a cream containing 2 % by weight Miconazole. Of course, any pharmaceutical preparation for treating a disease in a human must satisfy certain toxicity requirements. […] Toxicity tests have been performed on the IH-imidazole derivative compounds of the invention and on Miconazole and other known compounds having antimycotic properties. In toxicity tests the LD50 (the dose at which 50 % mortality occurs) is measured.
# Dermal infection in albino female guinea pigs by Trichophyton mcntagrophytes has been studied. Animals were distributed in three groups: a) a control group of infected untreated animals; b) a scrtaconazole group of infected and treated animals; and c) a miconazole group of infected and treated animals. Animals were depleted and a 0.4 ml suspension of the microorganism was applied on the depleted area. Treatment with each of the test drugs was made by application of 1 g of 2% cream on the depleted area on the 4th, 5th and 6th day after infection.
# [4] = Comparison of acute toxicity of Sertaconazole and Miconazole (Table IV); format: in vivo
# Protocol: Oral, intraperitoneal and subcutaneous acute toxicity of sertaconazole and miconazole have been investigated. LD50 in mouse and rat, male and female, were measured.
# [5] = test system: C. albicans 31; assay: MIC, comparative in vitro testing against Martin compounds; format: cell-based; settings: YNB medium
# Outline: (§2)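 Minimum inhibitory concentrations are measured in vitro across a panel of microbial strains, and the reading time runs from inoculation until measurement.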
# [6] = test system: C. krusei 24; assay: as above; format: cell-based
# Outline: as §2
# [7] = test system: C. pseudotropicalis 21; assay: as above; format: cell-based; settings: Sabouraud medium
# Outline: as §2
# [8] = test system: C. albicans 14; assay: as above; format: cell-based; settings: Casitone medium
# Outline: as §2
# [9] = test system: C. parapsilosis 19; assay: as above; format: cell-based
# Outline: as §2
# [10] = test system: C. stellatoidea 36232; assay: as above; format: cell-based
# Outline: as §2
# [11] = test system: Microsporum canis; assay: MIC by two-fold dilution, Microsporum canis; format: cell-based; settings: 4 strains, read-out: Minimum Inhibitory Concentration
# Protocol: (§3) Minimum Inhibitory Concentrations (MICS) of Sertaconazole and Miconazole against 107 yeasts, 47 dermatophytes and 4 fungi were determined by a two-fold dilution method.
# [12] = test system: Gram-positive germs; assay: MIC by two-fold dilution, Gram-positive germs; format: cell-based; settings: 21 strains; read-out: Minimum Inhibitory Concentration
# [13] = test system: Malasezzia furfur; assay: MIC by two-fold dilution, Malasezzia furfur; format: cell-based; settings: 20 strains
# Protocol: as §3
# [14] = test system: Candida albicans; assay: MIC by two-fold dilution, Candida albicans; format: cell-based
# Description: as §1, §3
smiles,measurement,setting,value
Clc1ccc(C(Cn2ccnc2)OCc2csc3c(Cl)cccc23)c(Cl)c1 (centres unmarked) [Sertaconazole],less toxic than Martin Compound 1,[1],8-15 times
same,signs of intoxication in the central nervous system (convulsions and Straub tail),[1],not observed
same,LD0,[1]; ip,4000 mg/kg
same,LD50,[1]; ip,8000 mg/kg
same,safe dosage higher than that of Miconazole,[2],about 15 times
same,NOAEL,[2]; rat,~150 mg/kg
same,% microbiological healing,[3]; 18 days postinfection,56%
same,Negative Cultures to Total Cultures,[3]; 18 days postinfection,27/48
same,% microbiological healing,[3]; 25 days postinfection,75%
same,Negative Cultures to Total Cultures,[3]; 25 days postinfection,36/48
same,% microbiological healing,[3]; 32 days postinfection,84%
same,Negative Cultures to Total Cultures,[3]; 32 days postinfection,40/48
same,activity higher than Miconazole,[3]; 18th day postinfection,9 times
same,activity higher than Miconazole,[3]; 25th day postinfection,2.7 times
same,activity higher than Miconazole,[3]; 32nd day postinfection,1.9 times
same,acute toxicity relative to Miconazole,[4]; oral and intraperitoneal routes,an order of magnitude less toxic
same,acute toxicity relative to Miconazole,[4]; subcutaneous,significantly less
same,MIC,"[5]; Candida albicans, 31, reading time 48 h, SZ vs M2, read-out: MIC",4 µg/mL
same,MIC,"[5]; Candida albicans, 31, reading time 60 h, SZ vs M1, read-out: MIC",8 µg/mL
same,MIC,"[5]; reading time 48 h, SZ vs M3",4 µg/mL
same,MIC,"[5]; reading time 48 h, SZ vs M4",4 µg/mL
same,MIC,"[6]; Casitone medium, reading time 48 h, SZ vs M4",0.125 µg/mL
same,MIC,"[6]; Pichia kudriavzevii, 24, 48 h",0.125 µg/mL
same,MIC,"[6]; Pichia kudriavzevii, 24, 48 h, Casitone medium, reading time 48 h, SZ vs M2, read-out: MIC",0.25 µg/mL
same,MIC,"[6]; Pichia kudriavzevii, 24, 48 h, YNB medium, reading time 48 h, SZ vs M2, read-out: MIC",0.25 µg/mL
same,MIC,"[6]; Pichia kudriavzevii, 24, 48 h, YNB medium, reading time 48 h, SZ vs M3, read-out: MIC",0.25 µg/mL
same,MIC,"[6]; Pichia kudriavzevii, 24, 48 h, YNB medium, reading time 48 h, SZ vs M4, read-out: MIC",0.25 µg/mL
same,MIC,"[6]; Pichia kudriavzevii, 24, 60 h, Casitone medium, reading time 60 h, SZ vs M1, read-out: MIC",1 µg/mL
same,MIC,"[6]; Pichia kudriavzevii, 24, 60 h, YNB medium, reading time 60 h, SZ vs M1, read-out: MIC",0.25 µg/mL
same,MIC,"[7]; Kluyveromyces marxianus, 21, reading time 48 h, SZ vs M2, read-out: MIC",0.03 µg/mL
same,MIC,"[7]; Kluyveromyces marxianus, 21, reading time 60 h, SZ vs M1, read-out: MIC",0.03 µg/mL
same,MIC,"[7]; reading time 48 h, SZ vs M3",0.03 µg/mL
same,MIC,"[7]; reading time 48 h, SZ vs M4",0.03 µg/mL
same,MIC,"[8]; Candida albicans, 14, 48 h, reading time 48 h, SZ vs M2",0.25 µg/mL
same,MIC,"[8]; Candida albicans, 14, 48 h, reading time 48 h, SZ vs M3",0.5 µg/mL
same,MIC,"[8]; Candida albicans, 14, 48 h, reading time 48 h, SZ vs M4",0.5 µg/mL
same,MIC,"[8]; Candida albicans, 14, 60 h, reading time 60 h, SZ vs M1",1 µg/mL
same,MIC,"[9]; 19, 48 h, Sabouraud medium, reading time 48 h, SZ vs M2",0.25 µg/mL
same,MIC,"[9]; 19, 48 h, Sabouraud medium, reading time 48 h, SZ vs M3",0.25 µg/mL
same,MIC,"[9]; 19, 48 h, Sabouraud medium, reading time 48 h, SZ vs M4",0.25 µg/mL
same,MIC,"[9]; 19, 48 h, YNB medium, reading time 48 h, SZ vs M2",0.25 µg/mL
same,MIC,"[9]; 19, 48 h, YNB medium, reading time 48 h, SZ vs M3",0.5 µg/mL
same,MIC,"[9]; 19, 48 h, YNB medium, reading time 48 h, SZ vs M4",0.5 µg/mL
same,MIC,"[9]; 19, 60 h, Sabouraud medium, reading time 60 h, SZ vs M1",1 µg/mL
same,MIC,"[9]; 19, 60 h, YNB medium, reading time 60 h, SZ vs M1",0.5 µg/mL
same,MIC,"[10]; Candida albicans, 36232, 48 h, Casitone medium, reading time 48 h, SZ vs M2",0.06 µg/mL
same,MIC,"[10]; Candida albicans, 36232, 48 h, Casitone medium, reading time 48 h, SZ vs M3",0.06 µg/mL
same,MIC,"[10]; Candida albicans, 36232, 48 h, Casitone medium, reading time 48 h, SZ vs M4",0.06 µg/mL
same,MIC,"[10]; Candida albicans, 36232, 48 h, Sabouraud medium, reading time 48 h, SZ vs M2",0.25 µg/mL
same,MIC,"[10]; Candida albicans, 36232, 48 h, Sabouraud medium, reading time 48 h, SZ vs M3",0.5 µg/mL
same,MIC,"[10]; Candida albicans, 36232, 48 h, Sabouraud medium, reading time 48 h, SZ vs M4",0.5 µg/mL
same,MIC,"[10]; Candida albicans, 36232, 48 h, YNB medium, reading time 48 h, SZ vs M2",1 µg/mL
same,MIC,"[10]; Candida albicans, 36232, 48 h, YNB medium, reading time 48 h, SZ vs M3",0.5 µg/mL
same,MIC,"[10]; Candida albicans, 36232, 48 h, YNB medium, reading time 48 h, SZ vs M4",0.5 µg/mL
same,MIC,"[10]; Candida albicans, 36232, 60 h, Casitone medium, reading time 60 h, SZ vs M1",0.25 µg/mL
same,MIC,"[10]; Candida albicans, 36232, 60 h, Sabouraud medium, reading time 60 h, SZ vs M1",1 µg/mL
same,MIC,"[10]; Candida albicans, 36232, 60 h, YNB medium, reading time 60 h, SZ vs M1",4 µg/mL
same,MIC,[11],2.8 µg/mL
same,MIC,[12],0.97 µg/mL
same,Minimum Inhibitory Concentration,[13],25/8
same,MIC,"[14]; Candida albicans, 52 strains, read-out: Minimum Inhibitory Concentration",6 µg/mL
same,increase of activity in comparison to Miconazole,[14]; in vitro,43.9%
